Test [1] addresses T1, NK1 receptors (Cavia porcellus, UniProt P30547). Nature of the test: NK-1-receptor-antagonistic effectiveness in vivo in anaesthetised guinea pigs (NKA test stimulus, early hypotension). On the set-up: from tissue; host or cells: whole anaesthetised guinea pig (in vivo); species or system Pirbright-White guinea pigs. The following applies: for ED50: guinea pig; for oral activity as NK1 receptor antagonist: result in words, oral administration. From the text: The NK-1- and NK-2-antagonistic activities of the test substances were investigated in anaesthetised guinea pigs in each case after intravenous (= i.v.) and oral (= p.o.) administration in vivo. With the present test model it is possible to detect both NK-2-antagonistic effects in three different organ systems (respiratory tracts, colon and circulation) and NK-1-antagonistic effects (rapid drop in blood pressure) in an animal simultaneously.
Pirbright-White guinea pigs of a body weight of 500-700 g were anaesthetised with ketamine/xylazine (67/13 mg/kg subcutaneously, initial dose, further doses administered as required). The animals were provided with an intravenous catheter in order to administer the substance and an intra-arterial catheter to measure the blood pressure. The animals were artificially ventilated via a tracheal cannula and the respiratory pressure was recorded by means of a pressure transducer. A balloon was introduced into the distal colon of the animals for manometric recording of colon motility by means of a pressure transducer. Blood pressure, heart rate, respiratory pressure and colonic pressure were measured continuously for each animal and plotted on a recorder and by means of a digital data-processing system. […] The second phase of delayed hypotension (= phase of maximum hypotension after 2-5 min.) on the other hand is mediated via NK-2 receptors, since they can be blocked by specific NK-2 receptor antagonists. […] Table 6: NK-1- and NK-2-receptor-antagonistic effective-ness of the test substances of Formula I on guinea pigs in vivo after intravenous administration
These ED50 values obtained from cumulative dose effect curves are plotted in table 6.
The antagonistic effects of the test substances were then determined as "area under the curve" ("AUC") over the investigation period after administration of the test substances (1 - 180 min after administration) and the ED50 values after oral administration obtained therefrom were plotted in table 7. Table 7: NK-1- and NK-2-receptor-antagonistic effective-ness of the test substances of Formula I on guinea pigs in vivo after oral administration

Test [2] concerns the target T2, human NK1 receptors (Homo sapiens, UniProt P25103).
T2 construct: expressed in transfected cells; host or cells: CHO cells (membrane preparation)
In words: Binding of the test substances to NK1 receptors in vitro ([3H]-Substance P displacement, CHO cell membranes). The settings on record: [3H]-Substance P as ligand; membranes of CHO cells expressing the human NK1 receptor; Ki calculated from IC50; read-out: pKi (NK1) (converted). The procedure:
In The Netherlands, the affinity of the test substances to human NK1 receptors was measured in vitro.
The receptor binding studies were performed with [^3H]-Substance P as ligand. For the binding test, different samples of a membrane preparation of CHO cells (= egg cells of the Chinese hamster, Chinese hamster oocytes), which express the human NK1 receptor ("Accession Number" of the associated nucleic acid sequence = M74290; "Accession Number" of the associated protein sequence = P25103; cf. Takeda, Y.; Chou, K. B., Takeda, J.; Sachais, B.S. and Krause, J. E; Biochemical and Biophysical Research Communications, 179(3) (1991) 1232 - 1240), were incubated with a solution of the marked ligand, with the incubation mixtures containing no test substance or additions of different concentrations of test substance. Then, separation of bound and free ligands was performed in each of the samples with the aid of glass-fibre filtration. The fraction remaining in the filter was washed several times with buffer solution and then the radioactivity of the fraction remaining in the filter was measured using a beta scintillation counter.
For the compounds of Examples 1 to 14, that concentration which effects half maximum displacement of the bound ligand was determined as IC50 of the respective test substance. From this, the corresponding inhibition constant (Ki value) of the test substance was calculated, and was stated as the negative common logarithm of the Ki value (= pKi value). The pKi value is a measurement of the affinity of the test substances to human NK1 receptors.

Test [3] addresses T1, NK1 receptors. In words: Functional NK1 antagonism on isolated guinea pig aorta ring preparations (Substance P induced relaxation). On the set-up: from tissue; host or cells: guinea pig aorta ring preparations; species or system Pirbright-White guinea pigs. The procedure: In The Netherlands, the action antagonistic to NK1 receptors of the test substances was measured in vitro on isolated ring preparations, kept in an oxygenated nutrient solution, of the aortas of Pirbright-White guinea pigs.
In order to measure the contraction of the vessel muscles, the preparations were fixed to a hook, joined by a thread to a force measuring apparatus and the contractions were recorded in each case on a plotter. The aorta preparations were tonicised with phenylephrine. […] The relaxations before and after the administration of the test substance were quantified in percent. The effective concentration of the half maximum inhibition of the relaxation of the tone (= EC50) was calculated. The negative common logarithm of the EC50 value (= pEC50) was given as characteristic variable. The pEC50 value is a measurement of the functional effectiveness of the test substances on NK1 receptors.

In test [4] the target is T3, cloned human NK1 receptors (Homo sapiens, UniProt P25103).
T3 construct: expressed in transfected cells
T3 sequence (P25103 whole entry): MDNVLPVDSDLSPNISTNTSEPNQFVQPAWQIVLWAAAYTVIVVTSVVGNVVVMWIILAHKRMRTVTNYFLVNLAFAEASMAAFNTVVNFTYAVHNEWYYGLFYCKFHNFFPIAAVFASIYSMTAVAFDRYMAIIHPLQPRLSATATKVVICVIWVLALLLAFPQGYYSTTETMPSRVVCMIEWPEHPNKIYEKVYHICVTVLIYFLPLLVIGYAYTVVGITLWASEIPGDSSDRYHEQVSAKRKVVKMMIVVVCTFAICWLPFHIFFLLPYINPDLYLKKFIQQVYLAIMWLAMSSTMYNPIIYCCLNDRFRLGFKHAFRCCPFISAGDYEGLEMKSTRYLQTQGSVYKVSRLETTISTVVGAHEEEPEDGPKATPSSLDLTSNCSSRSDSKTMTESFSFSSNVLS
In words: Ca2+ measurements using FLIPR for NK1 activity in CHO cells. The test is classed as cell-based. The settings on record: substance P 10^-8 M as agonist; compound applied 7 min before; pA2 calculated from IC50. From the text:
(§1) The NK receptor is coupled to Gq.
(§2) All steps were done under sterile conditions. […] The results are summarized in table 5: Table 5: pA2 data for NK1 and NK2: […]

Test [5] has as its target T4, cloned human NK2 receptors (Homo sapiens, UniProt P21452).
T4 construct: expressed in transfected cells
T4 sequence (P21452 1-398): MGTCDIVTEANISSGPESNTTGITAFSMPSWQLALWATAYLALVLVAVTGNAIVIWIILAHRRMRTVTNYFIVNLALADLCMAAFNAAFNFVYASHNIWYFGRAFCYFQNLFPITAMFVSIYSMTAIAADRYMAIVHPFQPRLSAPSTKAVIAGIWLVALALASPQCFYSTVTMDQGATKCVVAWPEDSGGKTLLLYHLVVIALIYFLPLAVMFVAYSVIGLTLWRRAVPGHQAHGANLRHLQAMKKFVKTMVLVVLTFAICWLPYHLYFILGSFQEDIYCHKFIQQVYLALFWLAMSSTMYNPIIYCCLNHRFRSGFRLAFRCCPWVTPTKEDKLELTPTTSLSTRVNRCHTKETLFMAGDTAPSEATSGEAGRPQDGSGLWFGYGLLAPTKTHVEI
Nature of the test: Ca2+ measurements using FLIPR for NK2 activity in CHO cells. Type of test: cell-based. The following applies: NKA 10^-7 M as agonist; compound applied 7 min before; pA2 calculated from IC50.
From the text: as §1, §2

Where [6] appears, read: iv, read-out: ED50 iv after 1 min (cumulative) NK1 (early hypotension).
[7] abbreviates: oral, from AUC of antagonistic effect 1 - 180 min after administration, read-out: ED50 AUC1-180 min oral NK1 (early hypotension).

pEC50: −log10 of the molar value. Read-outs that look alike come from different tables or passages of the source.

T1 sequence (P30547 whole entry): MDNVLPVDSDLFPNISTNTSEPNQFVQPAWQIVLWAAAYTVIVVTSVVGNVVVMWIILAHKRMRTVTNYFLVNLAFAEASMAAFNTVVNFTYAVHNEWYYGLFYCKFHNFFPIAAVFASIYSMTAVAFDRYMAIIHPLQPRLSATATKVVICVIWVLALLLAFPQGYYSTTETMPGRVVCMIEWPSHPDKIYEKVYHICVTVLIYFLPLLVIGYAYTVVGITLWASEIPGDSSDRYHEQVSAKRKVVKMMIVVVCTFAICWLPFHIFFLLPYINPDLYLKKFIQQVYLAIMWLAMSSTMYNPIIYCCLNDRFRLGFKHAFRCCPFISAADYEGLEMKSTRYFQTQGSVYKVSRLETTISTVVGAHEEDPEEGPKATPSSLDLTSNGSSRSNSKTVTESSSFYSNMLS
T2 sequence (P25103 whole entry): as the sequence (P25103 whole entry) above

One may read the ED50 as the midpoint of the dose-response relation. What is called pEC50 is the negative decadic logarithm of the EC50, by convention in mol/L. High values mean a small EC50, low ones a large EC50. On to `CN(C[C@@H](CCN1CCN([C@@H](c2ccco2)[C@H]2COC(=O)O2)CC1)c1ccc(Cl)c(Cl)c1)C(=O)c1cc(C#N)cc2ccccc12` [Compound 11, 3-cya no-N-[(2S)-2-(3,4-dichlorophenyl)-4-(4-{(R)-2-furyl[(4S)-2-oxo-1,3-dioxolan-4-yl]methyl}piperazin-1-yl)butyl]-N-methyl-1-naphthamide], for which, in test [1] (setting [6]), the median effective dose (ED50) is 0.093 µmol/kg. For the same compound, the Ki in test [2] was 7.94 nM. The same compound had a pEC50 in test [3] of 8.90.
With `CN(C[C@@H](CCN1CCN([C@@H](c2ccco2)[C@H](O)CO)CC1)c1ccc(Cl)c(Cl)c1)C(=O)c1cc(C#N)cc2ccccc12` [Compound 1, 3-cyano-N-[(2S)-2-(3,4-dichlorophenyl)-4-{4-[(1R,2S)-1-(2-furyl)-2,3-dihydroxypropyl]piperazin-1-yl}butyl]-N-methyl-1-naphthamide], the ED50 in test [1] (setting [6]) was determined as 0.077 µmol/kg; in test [1] (setting [7]), 22.9 µmol/kg. Also, the “oral activity as NK1 receptor antagonist” value in test [1] is “active orally”. Also, the Kb in test [4] was 1.26 nM; in test [5] it was 10 nM. Further, in test [2], the Ki is 3.98 nM. Also, the negative logarithm of the EC50 (pEC50) in test [3] is 9.40.
`CN(C[C@@H](CCN1CCN([C@@H](c2ccco2)[C@H](O)[C@@H](O)[C@H](O)CO)CC1)c1ccc(Cl)c(Cl)c1)C(=O)c1cc(C#N)cc2ccccc12` [Compound 2, 3-cyano-N-[(2S)-2-(3,4-dichlorophenyl)-4-{4-[(1R,2S,3R,4R)-1-(2-furyl)-2,3,4,5-tetrahydroxypentyl]piperazin-1-yl}butyl]-N-methyl-1-naphthamide]: the ED50 in test [1] (setting [6]) is under 0.01 µmol/kg; in test [1] (setting [7]), 15.2 µmol/kg. Also, the “oral activity as NK1 receptor antagonist” value in test [1] is reported as “active orally”. Further, the Ki in test [2] is 3.16 nM. The pEC50 in test [3] is 9.50.
As to `CN(C[C@@H](CCN1CCN(C(CO)(CO)c2ccco2)CC1)c1ccc(Cl)c(Cl)c1)C(=O)c1cc(C#N)cc2ccccc12` [Compound 6, 3-cyano-N-[(2S)-2-(3,4-dichlorophenyl)-4-{4-[1-(2-furyl)-2-hydroxy-1-(hydroxymethyl)ethyl]piperazin-1-yl}butyl]-N-methyl-1-naphthamide], the ED50 in test [1] (setting [6]) was 0.071 µmol/kg. Besides, in test [2], the Ki was 5.01 nM. The same compound showed a pEC50 in test [3] of 9.40.

The values above are taken from patent publication EP1954678B1, “NOVEL NK1 AND NK2 ANTAGONISTS” (Abbott Products GmbH, priority 2005, dated 2007).
